The values that follow come from ChEMBL document CHEMBL3991601, “The target landscape of clinical kinase drugs” (Science, 2017).

Each structure is given as a SMILES string. Active and inactive are the calls of the source. Some results are limits rather than exact numbers.

The target of test [1] is T1, Acyl-CoA dehydrogenase family member 10 (Homo sapiens, UniProt Q6JQN1).
T1 sequence (Q6JQN1 whole entry): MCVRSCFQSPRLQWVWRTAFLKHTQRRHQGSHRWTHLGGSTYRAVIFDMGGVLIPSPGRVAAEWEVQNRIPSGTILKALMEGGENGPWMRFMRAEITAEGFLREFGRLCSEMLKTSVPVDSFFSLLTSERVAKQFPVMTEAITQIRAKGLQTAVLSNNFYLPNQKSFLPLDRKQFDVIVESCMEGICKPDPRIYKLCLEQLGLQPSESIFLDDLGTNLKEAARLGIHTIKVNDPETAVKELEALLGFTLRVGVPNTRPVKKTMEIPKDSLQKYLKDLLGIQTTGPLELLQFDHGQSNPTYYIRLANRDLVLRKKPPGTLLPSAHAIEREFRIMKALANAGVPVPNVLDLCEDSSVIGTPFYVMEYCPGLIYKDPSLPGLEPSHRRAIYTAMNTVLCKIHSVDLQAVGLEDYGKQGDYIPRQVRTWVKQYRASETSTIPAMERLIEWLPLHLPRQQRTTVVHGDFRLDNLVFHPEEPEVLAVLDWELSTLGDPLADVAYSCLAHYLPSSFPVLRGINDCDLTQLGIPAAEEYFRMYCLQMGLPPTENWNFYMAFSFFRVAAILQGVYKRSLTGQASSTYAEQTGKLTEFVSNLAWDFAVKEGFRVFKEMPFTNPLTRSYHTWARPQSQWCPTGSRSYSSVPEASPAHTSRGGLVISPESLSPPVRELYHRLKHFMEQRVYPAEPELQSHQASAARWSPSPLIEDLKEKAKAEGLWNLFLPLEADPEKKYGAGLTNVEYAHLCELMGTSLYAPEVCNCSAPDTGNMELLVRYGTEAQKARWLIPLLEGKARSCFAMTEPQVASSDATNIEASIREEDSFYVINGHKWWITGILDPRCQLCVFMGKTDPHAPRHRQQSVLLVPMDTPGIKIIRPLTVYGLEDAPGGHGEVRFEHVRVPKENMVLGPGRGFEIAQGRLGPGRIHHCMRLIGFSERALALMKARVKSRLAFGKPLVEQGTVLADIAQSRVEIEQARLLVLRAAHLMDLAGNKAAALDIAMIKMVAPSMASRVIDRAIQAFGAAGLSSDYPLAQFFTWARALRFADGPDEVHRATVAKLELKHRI

The target in test [2] is Serine/threonine-protein kinase MRCK alpha (Homo sapiens, UniProt Q5VT25).
Chain of Serine/threonine-protein kinase MRCK alpha (Q5VT25 whole entry): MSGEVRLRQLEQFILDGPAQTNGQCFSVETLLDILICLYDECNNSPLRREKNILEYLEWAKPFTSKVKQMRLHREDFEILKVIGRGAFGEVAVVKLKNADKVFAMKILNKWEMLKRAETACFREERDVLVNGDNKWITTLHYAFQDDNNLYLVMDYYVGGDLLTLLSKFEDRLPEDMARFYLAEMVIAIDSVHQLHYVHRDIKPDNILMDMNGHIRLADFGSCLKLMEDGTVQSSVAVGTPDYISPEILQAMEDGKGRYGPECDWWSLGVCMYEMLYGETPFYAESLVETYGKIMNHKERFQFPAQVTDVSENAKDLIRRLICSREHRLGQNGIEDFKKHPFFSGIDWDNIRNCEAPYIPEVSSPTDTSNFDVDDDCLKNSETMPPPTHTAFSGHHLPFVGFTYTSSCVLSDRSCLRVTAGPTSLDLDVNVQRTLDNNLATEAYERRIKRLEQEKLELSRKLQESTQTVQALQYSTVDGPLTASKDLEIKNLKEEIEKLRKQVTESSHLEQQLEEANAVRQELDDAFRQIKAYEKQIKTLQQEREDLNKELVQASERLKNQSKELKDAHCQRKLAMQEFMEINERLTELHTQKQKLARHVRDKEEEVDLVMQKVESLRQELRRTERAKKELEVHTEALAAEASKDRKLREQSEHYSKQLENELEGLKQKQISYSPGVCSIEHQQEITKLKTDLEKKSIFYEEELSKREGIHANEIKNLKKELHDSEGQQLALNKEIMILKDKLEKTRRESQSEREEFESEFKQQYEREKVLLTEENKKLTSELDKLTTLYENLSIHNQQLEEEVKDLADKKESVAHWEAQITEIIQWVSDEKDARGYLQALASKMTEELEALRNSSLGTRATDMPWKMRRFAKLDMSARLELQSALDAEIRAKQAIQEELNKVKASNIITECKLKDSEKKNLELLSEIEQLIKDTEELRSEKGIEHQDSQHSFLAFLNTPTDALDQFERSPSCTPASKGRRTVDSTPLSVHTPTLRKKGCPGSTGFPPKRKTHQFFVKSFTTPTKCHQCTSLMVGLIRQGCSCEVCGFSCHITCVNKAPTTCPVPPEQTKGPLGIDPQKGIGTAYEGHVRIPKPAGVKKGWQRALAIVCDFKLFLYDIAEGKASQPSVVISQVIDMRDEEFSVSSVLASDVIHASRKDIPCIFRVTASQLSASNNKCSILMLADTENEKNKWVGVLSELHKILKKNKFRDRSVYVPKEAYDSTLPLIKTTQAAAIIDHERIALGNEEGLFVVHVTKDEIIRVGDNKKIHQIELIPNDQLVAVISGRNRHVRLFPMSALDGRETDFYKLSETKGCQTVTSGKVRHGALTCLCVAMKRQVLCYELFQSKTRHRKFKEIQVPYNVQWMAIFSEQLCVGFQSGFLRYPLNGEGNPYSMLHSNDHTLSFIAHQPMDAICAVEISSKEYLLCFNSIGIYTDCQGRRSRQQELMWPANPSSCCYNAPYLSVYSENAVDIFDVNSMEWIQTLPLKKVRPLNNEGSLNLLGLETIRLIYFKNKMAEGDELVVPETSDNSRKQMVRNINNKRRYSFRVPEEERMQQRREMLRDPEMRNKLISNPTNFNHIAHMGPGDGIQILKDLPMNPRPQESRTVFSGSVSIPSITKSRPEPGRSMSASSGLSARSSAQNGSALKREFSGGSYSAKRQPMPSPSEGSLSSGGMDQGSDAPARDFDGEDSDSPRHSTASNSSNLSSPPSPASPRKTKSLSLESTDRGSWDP
The target in test [3] is Insulin-like growth factor 1 receptor (Homo sapiens, UniProt P08069).
Chain of Insulin-like growth factor 1 receptor (P08069 31-736 limits assumed): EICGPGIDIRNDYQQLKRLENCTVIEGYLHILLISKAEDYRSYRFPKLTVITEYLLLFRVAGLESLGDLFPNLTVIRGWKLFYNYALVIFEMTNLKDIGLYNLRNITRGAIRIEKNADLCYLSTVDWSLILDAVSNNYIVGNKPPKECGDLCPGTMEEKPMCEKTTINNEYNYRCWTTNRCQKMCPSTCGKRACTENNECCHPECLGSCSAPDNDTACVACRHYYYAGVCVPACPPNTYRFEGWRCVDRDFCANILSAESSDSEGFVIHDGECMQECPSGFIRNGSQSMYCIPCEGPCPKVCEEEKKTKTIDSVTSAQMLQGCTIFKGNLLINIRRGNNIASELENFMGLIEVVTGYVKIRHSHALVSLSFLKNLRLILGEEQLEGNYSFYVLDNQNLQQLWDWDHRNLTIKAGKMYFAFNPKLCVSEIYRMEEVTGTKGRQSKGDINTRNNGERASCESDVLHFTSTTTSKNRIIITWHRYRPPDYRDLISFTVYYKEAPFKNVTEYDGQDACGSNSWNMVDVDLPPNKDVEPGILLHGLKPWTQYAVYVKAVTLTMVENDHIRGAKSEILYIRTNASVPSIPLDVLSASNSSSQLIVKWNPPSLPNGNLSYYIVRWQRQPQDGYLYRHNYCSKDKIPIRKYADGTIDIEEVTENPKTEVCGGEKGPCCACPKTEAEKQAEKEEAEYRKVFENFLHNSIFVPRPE
Chain of Insulin-like growth factor 1 receptor (P08069 741-1367 limits assumed): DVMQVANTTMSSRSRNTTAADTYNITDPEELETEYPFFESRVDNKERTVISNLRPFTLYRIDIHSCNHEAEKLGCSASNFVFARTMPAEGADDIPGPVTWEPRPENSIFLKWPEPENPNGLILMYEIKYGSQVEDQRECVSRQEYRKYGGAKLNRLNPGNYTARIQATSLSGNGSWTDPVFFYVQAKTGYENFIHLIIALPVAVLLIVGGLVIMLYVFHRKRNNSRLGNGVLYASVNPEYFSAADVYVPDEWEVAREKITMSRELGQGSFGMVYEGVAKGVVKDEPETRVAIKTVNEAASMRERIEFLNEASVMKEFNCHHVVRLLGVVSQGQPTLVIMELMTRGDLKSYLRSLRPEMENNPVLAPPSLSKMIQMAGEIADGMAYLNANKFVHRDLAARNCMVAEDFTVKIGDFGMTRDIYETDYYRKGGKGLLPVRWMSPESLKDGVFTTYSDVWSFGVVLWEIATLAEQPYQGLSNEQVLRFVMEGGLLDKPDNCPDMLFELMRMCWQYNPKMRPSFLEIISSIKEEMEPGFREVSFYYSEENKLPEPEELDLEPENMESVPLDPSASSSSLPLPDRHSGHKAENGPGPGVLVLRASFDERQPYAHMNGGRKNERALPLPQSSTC
Test [4] deals with T2, Structural maintenance of chromosomes protein 1A (Homo sapiens, UniProt Q14683).
T2 sequence (Q14683 whole entry): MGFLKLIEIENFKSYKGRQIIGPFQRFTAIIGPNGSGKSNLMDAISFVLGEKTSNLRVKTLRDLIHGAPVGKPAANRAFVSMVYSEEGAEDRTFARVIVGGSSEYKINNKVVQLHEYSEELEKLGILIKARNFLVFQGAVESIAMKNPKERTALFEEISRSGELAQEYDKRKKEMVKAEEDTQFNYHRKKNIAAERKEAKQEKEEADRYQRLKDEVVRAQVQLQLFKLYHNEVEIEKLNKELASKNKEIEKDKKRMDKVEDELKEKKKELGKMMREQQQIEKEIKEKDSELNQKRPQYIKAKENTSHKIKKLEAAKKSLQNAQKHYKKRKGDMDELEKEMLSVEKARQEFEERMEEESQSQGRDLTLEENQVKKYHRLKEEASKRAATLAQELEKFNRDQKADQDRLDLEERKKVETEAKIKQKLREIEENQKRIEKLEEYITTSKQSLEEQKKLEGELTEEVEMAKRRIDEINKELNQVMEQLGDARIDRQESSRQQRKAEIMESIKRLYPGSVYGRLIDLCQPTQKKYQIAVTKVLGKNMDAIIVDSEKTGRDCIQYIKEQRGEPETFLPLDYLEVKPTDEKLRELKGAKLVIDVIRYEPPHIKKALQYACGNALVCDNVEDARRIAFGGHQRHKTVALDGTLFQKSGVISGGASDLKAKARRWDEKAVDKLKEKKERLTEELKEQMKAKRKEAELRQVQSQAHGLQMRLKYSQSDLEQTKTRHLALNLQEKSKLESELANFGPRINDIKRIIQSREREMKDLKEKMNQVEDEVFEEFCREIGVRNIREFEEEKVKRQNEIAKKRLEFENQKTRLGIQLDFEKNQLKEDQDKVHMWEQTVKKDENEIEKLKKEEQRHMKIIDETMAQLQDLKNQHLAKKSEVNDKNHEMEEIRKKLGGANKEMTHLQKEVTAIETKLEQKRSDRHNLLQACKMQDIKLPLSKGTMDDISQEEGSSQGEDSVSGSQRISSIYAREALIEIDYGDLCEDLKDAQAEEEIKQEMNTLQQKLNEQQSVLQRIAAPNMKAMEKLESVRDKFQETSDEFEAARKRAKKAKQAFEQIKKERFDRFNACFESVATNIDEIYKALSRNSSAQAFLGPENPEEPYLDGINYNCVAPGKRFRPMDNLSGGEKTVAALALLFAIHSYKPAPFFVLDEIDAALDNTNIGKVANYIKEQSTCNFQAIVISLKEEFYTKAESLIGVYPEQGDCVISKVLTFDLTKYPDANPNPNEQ

Test [5] deals with T3, Serine/threonine-protein kinase TBK1 (Homo sapiens, UniProt Q9UHD2).
T3 sequence (Q9UHD2 whole entry): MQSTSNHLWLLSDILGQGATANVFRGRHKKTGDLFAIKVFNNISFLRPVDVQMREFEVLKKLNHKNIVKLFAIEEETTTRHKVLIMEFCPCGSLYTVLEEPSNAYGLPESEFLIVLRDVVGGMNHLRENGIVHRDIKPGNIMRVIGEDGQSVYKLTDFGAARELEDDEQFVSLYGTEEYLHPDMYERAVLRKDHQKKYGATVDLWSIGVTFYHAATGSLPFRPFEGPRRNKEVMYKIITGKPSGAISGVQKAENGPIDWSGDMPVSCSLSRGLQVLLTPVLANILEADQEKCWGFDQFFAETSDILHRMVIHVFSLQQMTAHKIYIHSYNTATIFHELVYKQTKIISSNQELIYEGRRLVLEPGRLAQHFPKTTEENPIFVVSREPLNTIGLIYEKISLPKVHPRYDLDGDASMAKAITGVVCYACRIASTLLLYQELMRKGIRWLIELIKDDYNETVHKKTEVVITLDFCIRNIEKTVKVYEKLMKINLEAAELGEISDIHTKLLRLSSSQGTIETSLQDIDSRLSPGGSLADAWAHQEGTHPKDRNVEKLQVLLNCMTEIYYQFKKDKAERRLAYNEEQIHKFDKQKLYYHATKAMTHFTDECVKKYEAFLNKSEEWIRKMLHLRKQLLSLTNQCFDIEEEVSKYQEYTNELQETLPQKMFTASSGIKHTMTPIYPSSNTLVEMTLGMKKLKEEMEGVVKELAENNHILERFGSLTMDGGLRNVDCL
Also: in the data inactive means no Kd found up to 30 µM.

For the compound `O=C(c1ccc(F)c(F)c1Nc1ccc(I)cc1F)N1CC(O)([C@@H]2CCCCN2)C1` [COBIMETINIB], the Kd in test [1], in test [2], in test [3], in test [4] and in test [5] was > 30 µM (inactive) each time.
As for `Cc1ccc(S(=O)(=O)Nc2nc3ccccc3nc2Nc2ccc3nsnc3c2)cc1`, the Kd in test [1], in test [2], in test [3], in test [4] and in test [5] was > 30 µM (inactive) throughout.
Regarding `CCS(=O)(=O)N1CC(CC#N)(n2cc(-c3ncnc4[nH]ccc34)cn2)C1` [BARICITINIB], the Kd in test [1], in test [2], in test [3], in test [4] and in test [5] was > 30 µM (inactive) throughout.
On to `Cc1ccc(NC(=O)c2ccc(CN3CC[C@H](N(C)C)C3)c(C(F)(F)F)c2)cc1Nc1nccc(-c2cncnc2)n1` [BAFETINIB], for which the Kd in test [1], in test [2], in test [3], in test [4] and in test [5] was > 30 µM (inactive) in each case.
Turning to `Cc1ccc(-n2nc(C(C)(C)C)cc2NC(=O)NCc2cc(F)ccc2Oc2ccc3c(cnn3CCO)c2)cc1` [PEXMETINIB], the Kd in test [1], in test [2], in test [3], in test [4] and in test [5] was > 30 µM (inactive) in each case.
Regarding `CNS(=O)(=O)Nc1nccc(Cc2c(C)c3ccc(Oc4ncccn4)cc3oc2=O)c1F` [AVUTOMETINIB], the Kd in test [1], in test [2], in test [3], in test [4] and in test [5] was > 30 µM (inactive) in each case.
Turning to `COc1ccc(-c2ccc3c(N4CCOC[C@@H]4C)nc(N4CCOC[C@@H]4C)nc3n2)cc1CO` [AZD-8055], the Kd in test [1], in test [2], in test [3], in test [4] and in test [5] was > 30 µM (inactive) in each case.
For `C1=C/COCc2cc(ccc2OCCN2CCCC2)Nc2nccc(n2)-c2cccc(c2)COC/1` [PACRITINIB], the Kd in test [1] is > 30 µM (inactive); in test [2] it was > 30 µM (inactive); in test [3] it was > 30 µM (inactive); in test [4], > 30 µM (inactive); in test [5], 49.6 µM (active).
With `O=C(O)[C@]1(Cc2cccc(Nc3nccs3)n2)CC[C@@H](Oc2cccc(Cl)c2F)CC1` [MK-5108], the Kd was 2.47 µM (active) in test [1]; > 30 µM (inactive) in test [2]; > 30 µM (inactive) in test [3]; > 30 µM (inactive) in test [4]; > 30 µM (inactive) in test [5].
Consider `COc1cc2nccc(Oc3ccc(NC(=O)Nc4cc(C)on4)c(Cl)c3)c2cc1OC` [TIVOZANIB], for which the Kd in test [1], in test [2], in test [3], in test [4] and in test [5] was > 30 µM (inactive) throughout.
With `CC(=O)Nc1cccc(-n2c(=O)n(C3CC3)c(=O)c3c(Nc4ccc(I)cc4F)n(C)c(=O)c(C)c32)c1` [TRAMETINIB], the Kd in test [1], in test [2], in test [3], in test [4] and in test [5] was > 30 µM (inactive) each time.
On to `CCCS(=O)(=O)Nc1ccc(F)c(C(=O)c2c[nH]c3ncc(-c4ccc(Cl)cc4)cc23)c1F` [VEMURAFENIB], for which the Kd in test [1], in test [2], in test [3], in test [4] and in test [5] was > 30 µM (inactive) each time.
On to `COCCNCc1ccc(-c2cc3nccc(Oc4ccc(NC(=S)NC(=O)Cc5ccc(F)cc5)cc4F)c3s2)nc1` [GLESATINIB], for which the Kd in test [1], in test [2], in test [3], in test [4] and in test [5] was > 30 µM (inactive) throughout.
In the case of `COC(=O)[C@@]1(O)C[C@H]2O[C@]1(C)n1c3ccccc3c3c4c(c5c6ccccc6n2c5c31)C(=O)NC4` [K-252A], the Kd in test [1] is > 30 µM (inactive); in test [2], > 30 µM (inactive); in test [3], > 30 µM (inactive); in test [4], > 30 µM (inactive); in test [5] it was 1.16 µM (active).
Regarding `Cn1cc(-c2ccc3nnc(C(F)(F)c4ccc5ncccc5c4)n3n2)cn1` [JNJ-38877605], the Kd in test [1], in test [2], in test [3], in test [4] and in test [5] was > 30 µM (inactive) throughout.
For the compound `Cc1cc([C@@H](C)Nc2ccccc2C(=O)O)c2nc(N3CCOCC3)cc(=O)n2c1` [AZD-6482], the Kd in test [1], in test [2], in test [3], in test [4] and in test [5] was > 30 µM (inactive) throughout.
